{
  "source": "patent EP3981864A1",
  "about": "“DETERGENT COMPOSITION” (priority 2020, dated 2022)",
  "key": {"[1]": {"test_system": "Mycolicibacterium fortuitum αDOX (SEQ ID NO: 14), fatty acid alpha-dioxygenase, K0VM18, N-terminal His-tag variant SEQ ID NO: 275 (comparative)", "experiment": "Alpha-dioxygenase activity assay (oxygen consumption, TON)", "format": "biochemical", "conditions": "fatty acid 100 µM, enzyme 6 ppm, 50 mM HEPES pH 9.0, 37°C; initial rate of oxygen consumption / enzyme concentration", "from_the_text": "Mycolicibacterium fortuitum αDOX (SEQ ID NO: 14) is a fatty acid alpha-dioxygenase that converts fatty acids into the corresponding 2-hydroperoxy fatty acids and is included as a comparative example of the present invention. A codon optimized gene (SEQ ID NO: 274) encoding for an alpha-dioxygenase variant (SEQ ID NO: 275), including an N-terminal amino acid sequence containing a His-tag was designed and synthesized by Genscript. After gene synthesis, the protein was expressed and purified. In brief, the complete synthetic gene sequence was subcloned into a pET30a vector using the NdeI/HindIII cloning sites. For heterologous expression, Escherichia coli BL21 (DE3) cells were transformed with the recombinant plasmid and a single colony was inoculated into LB medium containing kanamycin (50 mg/L). A pre-starter culture was then inoculated into flasks containing Magic Media (Thermo Fisher, Catalog # K6803) supplemented with kanamycin (50 mg/L) and incubated at 16 °C for 72 h. At an OD600nm = 0.5 - 1.0, 5-aminolevulinic acid (final concentration 0.5 mM) was added. Cells were harvested by centrifugation at 5000 rpm and 4°C and the pellet was lysed using a bacterial cell lysis buffer (B-PER - Themo Fisher, Waltham, MA). After centrifugation, the supernatant was collected, and the protein was purified by one-step purification using HisPur™ Ni-NTA Spin Columns (Thermo Scientific, Catalog # 88226) and standard protocols known in the art. […]\nReactions with alpha-dioxygenases were performed as follows. […] The reaction was incubated for up to 10 minutes at 37°C with 200 rpm agitation and the conversion was monitored using an oxygen sensor. The TON (in s-1) were calculated as the ratio between the initial rate of oxygen consumption (in µM/s) and the concentration of enzyme (in µM). […]"}, "[2]": {"biological_target": "T1, Arabidopsis thaliana αDOX (SEQ ID NO: 3), fatty acid alpha-dioxygenase, Q9SGH6, variant with N-terminal His-tag, MBP tag and TEV site SEQ ID NO: 253 (Arabidopsis thaliana, UniProt Q9SGH6)", "T1 construct": "His-tag (N); MBP tag (N); TEV protease cleavage site (N); made in house; host or cells: Escherichia coli BL21 (DE3), modified pET28a", "T1 sequence (Q9SGH6 1-639)": "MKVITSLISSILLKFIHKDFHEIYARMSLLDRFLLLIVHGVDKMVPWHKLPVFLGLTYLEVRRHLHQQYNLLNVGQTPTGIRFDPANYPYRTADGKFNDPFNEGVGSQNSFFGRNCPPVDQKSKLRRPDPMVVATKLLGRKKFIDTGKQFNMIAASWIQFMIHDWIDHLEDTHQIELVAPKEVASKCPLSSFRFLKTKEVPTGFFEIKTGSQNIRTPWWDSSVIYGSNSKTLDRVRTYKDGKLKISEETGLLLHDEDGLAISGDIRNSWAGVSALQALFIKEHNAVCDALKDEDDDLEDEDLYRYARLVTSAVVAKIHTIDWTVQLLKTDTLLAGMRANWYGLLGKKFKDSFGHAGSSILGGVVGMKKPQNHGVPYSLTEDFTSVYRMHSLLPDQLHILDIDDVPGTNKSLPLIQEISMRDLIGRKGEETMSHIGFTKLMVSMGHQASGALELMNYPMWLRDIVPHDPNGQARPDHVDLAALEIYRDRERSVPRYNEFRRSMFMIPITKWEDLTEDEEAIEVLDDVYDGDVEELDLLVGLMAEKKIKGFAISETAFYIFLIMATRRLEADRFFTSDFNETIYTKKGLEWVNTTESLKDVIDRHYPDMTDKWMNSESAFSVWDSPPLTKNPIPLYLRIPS", "experiment": "Alpha-dioxygenase activity assay (oxygen consumption, TON)", "format": "biochemical", "conditions": "fatty acid 100 µM, enzyme 6 ppm, 50 mM HEPES pH 9.0, 37°C; initial rate of oxygen consumption / enzyme concentration", "from_the_text": "Arabidopsis thaliana αDOX (SEQ ID NO: 3) is a fatty acid alpha-dioxygenase that converts fatty acids into the corresponding 2-hydroperoxy fatty acids and is included as an example of the present invention. A codon optimized gene (SEQ ID NO: 252) encoding for an alpha-dioxygenase variant was designed and synthesized by Genscript. After synthesis, the gene was cloned into a modified version of pET28a, such as the final plasmid encoded for a αDOX variant including an N-terminal amino acid sequence containing a His-tag, an MBP tag, and a TEV protease cleavage site (SEQ ID NO: 253). For heterologous expression, Escherichia coli BL21 (DE3) cells were transformed with the recombinant plasmid and a single colony was inoculated into LB medium containing kanamycin (50 mg/L). A pre-starter culture was then inoculated into flasks containing TB Media supplemented with kanamycin (50 mg/L) and incubated at 37 °C. At an OD600nm about 4, IPTG (final concentration 0.1 mM) and 5-aminolevulinic acid (final concentration 0.5 mM) were added to the culture and further incubated at 16 °C for 16 h. Cells were harvested by centrifugation and the pellet was lysed. After centrifugation, the supernatant was collected, and the protein was purified by one-step purification using Ni-NTA affinity chromatography and standard protocols known in the art. The protein was stored in 1×PBS buffer containing 10% Glycerol and at pH 7.4. The purified enzyme was stored at -80 °C until use.\nReactions with alpha-dioxygenases were performed as follows. An aliquot of fatty acid in ethanol (final concentration 100 µM) was resuspended in buffer (50 mM HEPES at pH 9.0) in a scintillation vial. The reaction was started by addition of enzyme (final concentration 6 ppm). The reaction was incubated for up to 10 minutes at 37°C with 200 rpm agitation and the conversion was monitored using an oxygen sensor. The TON (in s-1) were calculated as the ratio between the initial rate of oxygen consumption (in µM/s) and the concentration of enzyme (in µM). […]"}},
  "data": [
    {"compound": "CCCCCCCCCCCCCCCCCC(=O)O", "note": "[Stearic Acid]", "values": [
      {"measurement": "Stearic Acid, TON", "setting": "[1]", "value": 0.03, "unit": "s⁻¹"},
      {"measurement": "Stearic Acid, TON", "setting": "[2]", "value": 0.47, "unit": "s⁻¹"}
    ]},
    {"compound": "CCCCCCCC/C=C\\CCCCCCCC(=O)O", "note": "[Oleic Acid]", "values": [
      {"measurement": "Oleic Acid, TON", "setting": "[1]", "value": 0.00, "unit": "s⁻¹"},
      {"measurement": "Oleic Acid, TON", "setting": "[2]", "value": 0.14, "unit": "s⁻¹"}
    ]},
    {"compound": "CCCCCCCCCCCCCCCC(=O)O", "note": "[Palmitic Acid]", "values": [
      {"measurement": "Palmitic Acid, TON", "setting": "[1]", "value": 0.21, "unit": "s⁻¹"},
      {"measurement": "Palmitic Acid, TON", "setting": "[2]", "value": 1.01, "unit": "s⁻¹"}
    ]}
  ]
}
